How the values were obtained:
S. aureus RN4220Bi^R = test: MIC against biphenomycin-resistant S. aureus strain RN4220Bi^R; format: cell-based; details: colony selected as strain RN4220Bi^R
Protocol: The S. aureus strain RN4220Bi^R is isolated in vitro. […] Whereas about 1×10^7 cells grow on the antibiotic-free plate, about 100 colonies grow on the antibiotic-containing plate, corresponding to a resistance rate of 1×10^5. Some of the colonies grown on the antibiotic-containing plate are tested for the biphenomycin B MIC. One colony with a MIC of >50 μM is selected for further use, and the strain is referred to as RN4220Bi^R.

[1] = biological target: S. aureus 133 Translation; test: S. aureus in vitro transcription-translation assay (firefly luciferase, S30 extract); format: biochemical; details: 50% inhibition of the translation of firefly luciferase
Source text: In Vitro Transcription-Translation with S. aureus Extracts
Construction of an S. aureus luciferase Reporter Plasmid
In order to construct a reporter plasmid which can be used in an in vitro transcription-translation assay from S. aureus the plasmid pBESTluc (Promega Corporation, USA) is used. The E. coli tac promoter present in this plasmid in front of the firefly luciferase is replaced with the capA1 promoter with appropriate Shine-Dalgarno sequence from S. aureus. The primers CAPFor 5′-CGGCCAAGCTTACTC-[…] […]-3′ and CAPRev 5′-[…]-3′ are used for this. The primer CAPFor contains the capA1 promoter, the ribosome binding site and the 5′ region of the luciferase gene. After PCR using pBESTluc as template it is possible to isolate a PCR product which contains the firefly luciferase gene with the fused capA1 promoter. This is, after restriction with ClaI and HindIII, ligated into the vector pBESTluc which has likewise been digested with ClaI and HindIII. The resulting plasmid p1a can be replicated in E. coli and can be used as template in the S. aureus in vitro transcription-translation test.
Preparation of S30 Extracts from S. aureus
Six litres of BHI medium are inoculated with a 250 ml overnight culture of an S. aureus strain and allowed to grow at 37° C. until the OD600 nm is 2-4. The cells are harvested by centrifugation and washed in 500 ml of cold buffer A (10 mM Tris acetate, pH 8.0, 14 mM magnesium acetate, 1 mM DTT, 1 M KCl). After renewed centrifugation, the cells are washed in 250 ml of cold buffer A with 50 mM KCl, and the resulting pellets are frozen at −20° C. for 60 min. The pellets are thawed on ice in 30 to 60 min and taken up to a total volume of 99 ml in buffer B (10 mM Tris acetate, pH 8.0, 20 mM magnesium acetate, 1 mM DTT, 50 mM KCl). 1.5 ml portions of lysostaphin (0.8 mg/ml) in buffer B are introduced into 3 precooled centrifuge cups and mixed with 33 ml of the cell suspension each. The samples are incubated at 37° C., shaking occasionally, for 45 to 60 min, before 150 μl of a 0.5 M DTT solution are added. The lysed cells are centrifuged at 30 000×g and 4° C. for 30 min. The cell pellet is taken up in buffer B and then centrifuged again under the same conditions, and the collected supernatants are combined. The supernatants are centrifuged again under the same conditions, and 0.25 volumes of buffer C (670 mM Tris acetate, pH 8.0, 20 mM magnesium acetate, 7 mM Na3 phosphoenolpyruvate, 7 mM DTT, 5.5 mM ATP, 70 μM amino acids (complete from Promega), 75 μg of pyruvate kinase (Sigma, Germany))/ml are added to the upper ⅔ of the supernatant. The samples are incubated at 37° C. for 30 min. The supernatants are dialysed against 2 l of dialysis buffer (10 mM Tris acetate, pH 8.0, 14 mM magnesium acetate, 1 mM DTT, 60 mM potassium acetate) in a dialysis tube with a 3500 Da cut-off with one buffer change at 4° C. overnight. The dialysate is concentrated to a protein concentration of about 10 mg/ml by covering the dialysis tube with cold PEG 8000 powder (Sigma, Germany) at 4° C. The S30 extracts can be stored in aliquots at −70° C.
Determination of the IC50 in the S. aureus In Vitro Transcription-Translation Assay
The inhibition of protein biosynthesis of the compounds can be shown in an in vitro transcription-translation assay. The assay is based on the cell-free transcription and translation of firefly luciferase using the reporter plasmid p1a as template and cell-free S30 extracts obtained from S. aureus. The activity of the resulting luciferase can be detected by luminescence measurement.
The amount of S30 extract or plasmid p1a to be employed must be tested anew for each preparation in order to ensure an optimal concentration in the assay. 3 μl of the substance to be tested, dissolved in 5% DMSO, are provided in an MTP. Then […] of a suitably concentrated plasmid solution p1a are added. […]

Question: Which results are given for `NC[C@H](O)C[C@@H]1NC(=O)[C@@H](N)Cc2cc(ccc2O)-c2ccc(O)c(c2)C[C@@H](C(=O)O)NC1=O` [Biphenomycin B, biphenomycin B, reference compound]?
Answer: MIC (S. aureus RN4220Bi^R): > 50 µM; IC50 [1]: 1.5 µM
